Consider three compounds from PMC6100056, “Antitumor Effects and Delivery Profiles of Menahydroquinone-4 Prodrugs with Ionic or Nonionic Promoiety to Hepatocellular Carcinoma Cells” (Molecules : A Journal of Synthetic Chemistry and Natural …, 2018).

Counter-ions that a name gives are not always drawn.

Data set [1] can be described thus: Uptake of MKH-ester derivatives in HCC cells (Michaelis-Menten kinetics). It counts as in vitro ADME. Conditions: human, Michaelis-Menten fit, 95% confidence interval in square brackets. On the procedure: (§1) To assess the uptake of the intrinsic MKH-ester derivatives as the first step of MKH delivery into HCC cells, the velocities of uptake of MKH-ester derivatives were plotted and fitted with the Michaelis--Menten model (as shown in Figure 3), and the calculated kinetic parameters were determined (Table 1). All three derivatives increased in both PLC/PRF/5 and SK-Hep-1 cells in a dose-dependent manner. The uptake of MKH-SUC was clearly higher than that of MKH-DMG and MKH-ACT at all concentrations examined. The ratio of the […] (Vmax/Km) for MKH-SUC was about 5- to 10-fold higher than those for MKH-ACT and MKH-DMG in both cell lines.
(§2) HCC cells were plated at 1.5 × 10^5 cells/well in 6-well plates and allowed to attach for 48 h. Cells were cultured in medium containing MK-4, MKH-ACT, MKH-DMG or MKH-SUC for various intervals. After the drug exposure, media were removed, and cells were washed three times with PBS. Cells were collected in 1 mL of PBS and sonicated. The cell homogenates were combined with an equal volume of methanol and three times volume of n-hexane, vortexed for 2 min and centrifuged at 1750× g for 10 min. The organic layer was evaporated under N2 gas. The residue was reconstituted with 100 μL of methanol, sonicated for 10 s and subjected to LC-UV or LC-MS/MS analysis, as described below. The protein concentration of the cell homogenate was determined using a BCA protein assay kit.
(§3) The LC system was the same as that described in the 4.8.1 LC-MS/MS section, and the UV detector was a Prominence SPD-20A (Shimadzu Corp., Kyoto, Japan). Separations were performed on the same column mentioned in the 4.8.1 LC-MS/MS section and monitored at a wavelength of 240 nm. The mobile flow was a binary gradient: (A) 0.1% acetic acid in water and (B) 0.1% acetic acid in methanol. The total flow rate was 0.3 mL/min; 0 min at 80% B, 1 min at 80% B, 4.0 min at 100% B, 7.0 min at 100% B and 8.0 min at 80% B. The Column temperature was 40 °C. The retention times were as follows: MKH-DMG, 9.2 min; MKH-ACT, 8.2 min; and MKH-SUC, 6.6 min.
(§4) For the determination of Km and Vmax for the uptake and enzymatic activation of MKH-esters, concentration-dependency data were fit to the Michaelis--Menten equation:V = Vmax·[S]/(Km + [S])(1) where V represents the velocity of action between the substrate and transportation/enzymatic reaction, [S] refers to the concentration of the substrate and Km is defined as the concentration of substrate at the half-maximal rate of action (Vmax). Data were analyzed by GraphPad Prism (GraphPad Software).

In the next data set the test system is PLC/PRF/5 cells. Described as above. The settings on record: for Vmax (uptake of MKH-ester): PLC/PRF/5 cells, Michaelis-Menten fit, 95% confidence interval in square brackets. Format: in vitro ADME. On the procedure: as §1, §2, §3, §4
Another data set relates to SK-Hep-1 cells. The description is as above. Conditions: Michaelis-Menten fit, 95% confidence interval in square brackets. It counts as in vitro ADME. As for the experimental part:
as §1, §2, §3, §4

Details of data set [2]: method as in PMID 17537874, PMID 10077437. The settings on record: cited from earlier work.
Data set [3] is described as follows: Hydrolysis of MKH-SUC in isotonic buffer solution (PBS). The settings on record: in PBS at 37 °C; read-out: Half-life toward MKH (converted). Format: physicochemical. As for the experimental part:
Next, a time course of MKH delivery with the MKH derivatives, including MK-4, was investigated. The AUC0–24h values for MKO after treatment of MKH-SUC was the highest among the three MKH-derivatives in both HCC cell lines, and the AUC0–24h values for MKH after treatment of MKH-SUC were also the highest (Table 3). […] However, the difference in MKH delivery was not higher than that of the regeneration to MKH by the esterase of HCC (Figure 4 and Table 2). […] These differences may result from the actual amount (nearly equal to Vmax values) of uptake and the regeneration step between MKH-ACT and MKH-DMG, and the rates of transportation/enzymatic reactions to the substances (Km) of MKH-ACT and MKH-DMG may be sufficient to reach Vmax under the test conditions shown in Figure 5. […] Regarding the decrease of MK-4 after 24 h treatment of MKH-SUC in both cells (Figure 5D,H), this phenomenon may be explained by the disposition of hydrolysis of MKH-SUC in an isotonic buffer solution. […] This is because, at 24 h, the delivery of MKH, which acts as a cofactor of GGCX, remained sufficient, but excess MKH that would be oxidized to MK-4 may be reduced with the elimination of MKH-SUC.

[4] abbreviates: PLC/PRF/5 cells (HCC cell line), PLC/PRF/5 cells.

As for `CC(=O)Oc1c(C)c(C/C=C(\C)CC/C=C(\C)CC/C=C(\C)CCC=C(C)C)c(OC(C)=O)c2ccccc12` [MKH-ACT, Menahydroquinone-4 1,4-bis acetate], the melting point – broadly, the temperature of the solid-liquid transition – is 39 to 41 °C. Moreover, in data set [1] (setting [4]), the Km (as a rule, the substrate concentration at which the rate is half of its maximum) was determined as 31.9 µM. Further, the Km in data set [1] (SK-Hep-1 cells (HCC cell line)) was determined as 227 µM. In the data set on PLC/PRF/5 cells, the “Vmax (uptake of MKH-ester)” value was 2.76 [1.70 to 3.81] nmol·mg of Protein^−1·h^−1. The “Vmax (uptake of MKH-ester)” value in the data set with SK-Hep-1 cells was 20.3 [−9.47 to 50.0] nmol·mg of Protein^−1·h^−1.

With `CC(C)=CCC/C(C)=C/CC/C(C)=C/CC/C(C)=C/Cc1c(C)c(OC(=O)CN(C)C)c2ccccc2c1OC(=O)CN(C)C` [MKH-DMG, Menahydroquinone-4 1,4-bis-N,N-dimethylglycinate hydrochloride], the Km in data set [1] (setting [4]) is 447 µM; in data set [1] (SK-Hep-1 cells (HCC cell line)), 556 µM. In addition, the “Vmax (uptake of MKH-ester)” value in the data set on PLC/PRF/5 cells is 28.9 [−4.27 to 62.1] nmol·mg of Protein^−1·h^−1; with SK-Hep-1 cells, 62.6 [4.69 to 121] nmol·mg of Protein^−1·h^−1. In addition, the “Hydrolysis in human plasma” value in data set [2] is “not accelerated”.

As to `CC(C)=CCC/C(C)=C/CC/C(C)=C/CC/C(C)=C/Cc1c(C)c(OC(=O)CCC(=O)O)c2ccccc2c1OC(=O)CCC(=O)O` [MKH-SUC, Menahydroquinone-4 1,4-bis hemisuccinate], the values for the Km in data set [1] (setting [4]) and in data set [1] (SK-Hep-1 cells (HCC cell line)) were 712 µM and 381 µM, respectively. In addition, the “Vmax (uptake of MKH-ester)” value in the data set on PLC/PRF/5 cells is 345 [84.0 to 606] nmol·mg of Protein^−1·h^−1; in the data set on SK-Hep-1 cells it was 261 [74.7 to 448] nmol·mg of Protein^−1·h^−1. Moreover, the “Vmax/Km of uptake, higher than those for MKH-ACT and MKH-DMG” value with PLC/PRF/5 cells (in both cell lines (PLC/PRF/5 and SK-Hep-1)) was 5- to 10 fold. Also, the half-life (usually the time needed for the level to fall by half in the phase considered) in data set [3] is about 25 h.
